In US6395787B1, “Ocular hypotensive lipids” (Allergan Sales, Inc., priority 2000, dated 2002):

Assays:
[1] = system: isolated chick ileum (EP3 receptor preparation); experiment: Isolated chick ileum contraction; conditions: compared to prostaglandin E2, 10^−6 M
Experimental: (§1) Smooth muscle tension of isolated tissues was measured isometrically with force displacement transducers (Grass FT-03) and recorded on Grass Polygraphs (Models 7G and 79E). The organ baths contained Krebs solution maintained at 37° C. and gassed with 95% 02/5% CO2 to give a pH of 7.4. The Krebs solution had the following composition (mM): NaCl, 118.0; KCl, 4.7; KH2PO4, 1.2; CaCl2, 1.9; MgSO4, 1.18; NaHCO3, 25.0; glucose, 11.7; indomethacin, 0.001.
The chick ileum is an EP3 receptor preparation. Portions of the chick ileum of 1.5 cm length were suspended under 1 g of tension. After a one hour equilibration period, a standard dose-response curve for PGE2 was obtained in a non-cumulative fashion with 30 minute wash-out periods between individual doses. Subsequently, test compound was added non-cumulatively. A maximal dose of PGE2 (10^−6 M) was finally given to serve as a second reference standard. Contractile activity at each concentration was then calculated as a % of the maximal PGE2 response reached at a 10^−6 M concentration.

[2] = system: isolated guinea pig ileum (EP1 receptor preparation); experiment: Isolated guinea pig ileum contraction
Experimental: as §1
The guinea pig ileum is an EP1 receptor preparation. An approximately 1.5 cm segment of guinea pig ileum was suspended in a jacketed organ bath under 1 g tension. Following a 1 hr equilibration period, a wash-out dose response curve for PGE2 was obtained. 30 min wash-out periods were allowed between doses. […] A final administration of PGE2 10^−6 M was given as a reference. Data were expressed as % maximal of the PGE2 response.

human FP receptor = human FP receptor (Homo sapiens, UniProt P43088); experiment: Radioligand binding competition vs 3H-17-phenyl PGF2α, recombinant human FP receptor; set-up: expressed in transfected cells; conditions: for % specific binding mean χ ± SEM: vs 5nM 3H-17-phenyl PGF2α, n = 3
Chain of human FP receptor (P43088 whole entry): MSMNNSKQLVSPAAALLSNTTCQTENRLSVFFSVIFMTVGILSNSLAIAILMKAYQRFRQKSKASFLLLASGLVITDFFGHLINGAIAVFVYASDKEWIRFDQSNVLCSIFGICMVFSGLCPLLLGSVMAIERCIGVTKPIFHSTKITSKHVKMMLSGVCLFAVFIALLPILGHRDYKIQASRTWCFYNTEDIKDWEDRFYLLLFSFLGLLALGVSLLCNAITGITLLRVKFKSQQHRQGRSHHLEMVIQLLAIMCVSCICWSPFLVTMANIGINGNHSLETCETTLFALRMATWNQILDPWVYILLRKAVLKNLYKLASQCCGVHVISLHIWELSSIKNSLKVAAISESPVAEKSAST
Experimental: Plasma membrane preparations of HEK 293 cells stably transfected with the human or feline FP receptor were obtained as follows. Cells washed with TME buffer were scraped from the bottom of the flasks and homogenized for 30 sec using a Brinkman PT 10/35 polytron. TME buffer was added as necessary to achieve a 40 ml volume in the centrifuge tubes. TME is comprised of 100 mM TRIS base, 20 mM Mg Cl2, 2 m EDTA; physiological pH is achieved by adding 10 N HCl. The cell homogenate was centrifuged at 19,000 rpm for 20 min at 4-6° C. using a Beckman Ti-60 rotor. The pellet was then resuspended in TME buffer to provide a final protein concentration of 1 mg/ml, as determined by Biorad assay. Radioligand binding assays were performed in a 200 μl volume.
Incubations were for 60 min at 25° C. and were terminated by the addition of 4 ml of ice-cold 50 mM TRIS-HCl followed by rapid filtration through Whatman GF/B filters and three additional 4 ml washes in a cell harvester (Brandel).

dog pupil diameter = experiment: Dog pupil diameter; assay type: in vivo; conditions: 0.1%; for Pupil diameter (mm), test eye: n = 6
Experimental: Dog pupil diameter was measured using an optistick (a mm ruler which included half-circle references of standard widths (mm) for reference. Gently restraining the dog by hand, pupil diameter was determined by matching a half-circle to the pupil in normal room light. In dogs with very dark pupils a specialized penlight was used, but only very briefly to avoid pupil constriction. Pupil diameter was measured at the same time as IOP and hyperemia.

[3] = system: isolated guinea pig vas deferens (EP3 receptor subtype); experiment: Inhibition of field stimulated contraction of isolated guinea pig vas deferens
Experimental: as §1
Activity at the prostaglandin-sensitive EP3 receptor subtype was also determined by the ability of prostanoids to inhibit the smooth muscle twitch response stimulated by an electrical current in the isolated guinea pig vas deferens. 1.5 cm portions of the guinea pig vas deferens were suspended under 1 g initial tension and allowed to equilibrate for at least 30 minutes. Tissues were then subjected to stimulation every 30 seconds by 20 volt electrical pulses. After stabilization of the twitch response, a standard dose response curve to PGE2 was performed in a cumulative fashion. Test compounds were then evaluated by performing a cumulative dose response curve. Tissues were washed-out and allowed to equilibrate for 1 hr between compounds. PGE2 was once again evaluated at the conclusion of the experiment as a standard reference. Activity was calculated as the percent inhibition of the height of the muscle twitch response.

With CCCCC[C@H](O)/C=C/[C@@H]1[C@@H](C/C=C\CCCC(=O)NCCO)[C@@H](O)C[C@H]1O [PGF2α 1-ethanolamide, (5Z,8α,9α,11α,13E,15S)-9,11,15-trihydroxy-N-(2-hydroxyethyL)prosta-5,13-dien-1-amide] the “effect on the isolated chick ileum” value [1] was “weak partial agonist”, the Emax at 10 µM ([2]; Cavia porcellus, 10^−5 M, reference contraction PGE2 10^−6 M, n = 4, read-out: % Maximal response mean χ ± SEM) was 9.7 ± 4.2% and the Emax at 1 µM ([2]; Cavia porcellus, 10^−6 M, reference contraction PGE2 10^−6 M, n = 4, read-out: % Maximal response mean χ ± SEM) was 4 ± 2.6%. The Emax at 0.1 µM ([2]; Cavia porcellus, 10^−7 M, reference contraction PGE2 10^−6 M, n = 4, read-out: % Maximal response mean χ ± SEM) was 0%, the Emax at 0.01 µM ([2]; Cavia porcellus, 10^−8 M, reference contraction PGE2 10^−6 M, n = 4, read-out: % Maximal response mean χ ± SEM) was 0% and the “effect in the guinea pig ileum” value ([2]; compared with chick ileum) was “less effective”. For the same molecule, the “% specific binding mean χ ± SEM” value (human FP receptor; 10^−5 M) was 19.7 ± 1.2%, the “% specific binding mean χ ± SEM” value (human FP receptor; 10^−6 M) was 63.7 ± 2.7% and the “% specific binding mean χ ± SEM” value (human FP receptor; 10^−7 M) was 95.9 ± 1.5%. The “% specific binding mean χ ± SEM” value (human FP receptor; 10^−8 M) was 103.3 ± 0.3%, the “% specific binding mean χ ± SEM” value (human FP receptor; 10^−9 M) was 94.7 ± 1.4% and the IC50 (human FP receptor; read-out: I.C.50, radioligand binding) was 2020 nM. The “Pupil diameter (mm), test eye” value (dog pupil diameter; 0 HR (baseline)) was 6.7 ± 0.2 mm, the “Pupil diameter (mm), test eye” value (dog pupil diameter; 2 HR) was 1.0 ± 0.4 mm and the “Pupil diameter (mm), test eye” value (dog pupil diameter; 4 HR) was 1.0 ± 0.3 mm. For the same molecule, the “Pupil diameter (mm), test eye” value (dog pupil diameter; 6 HR) was 1.5 ± 0.4 mm, the “Pupil diameter (mm), test eye” value (dog pupil diameter; 24 HR) was 7.0 ± 0.3 mm and the miosis (dog pupil diameter; topical) was “marked miosis”. The “inhibiting field stimulation evoked contraction” value [3] was “modestly effective”.
